Data taken from patent publication EP0714662A1, “ANTIALLERGIC AGENT” (MEIJI MILK PRODUCTS COMPANY LIMITED, priority 1993, dated 1995).
Ends that are not written are not given here.

Tests used:
[1] = test system: basophils artificially sensitized in a passive manner with serum IgEs from patients suffering from rhinallergosis caused by mites; experiment: Passive histamine release (inhibition) test with passively sensitized basophils; type: cell-based, human
Description: To 20 ml of heparinized venous blood, 5 ml of a 4.5% dextran solution were added and the mixture was allowed to stand for 30 to 60 minutes at room temperature. The upper leukocyte layer was extracted and subjected to a repetitive centrifugal operation. The leukocytes were then washed with PBS. To the leuokocytes in a precipitated fraction, 20 ml of a lactate buffer (pH 3.9, 4°C) were added and thoroughly mixed. After cooling the mixture on ice for 2 to 5 minutes, the pH was returned to neutral by adding PBS (25 ml). By this operation, IgEs on basophils were released. The leukocytes were washed well with PBS and suspended in 0.5% human albumin/PBS. 100 µl of cell suspension (approximately 2 x 10⁵ cells/well) were added to a V-bottom 96-well plate. Fifty µl of a pooled serum of patients suffering from rhinallergosis caused by mites were further added, and reaction was allowed to proceed for 1 hour at 37°C. This procedure caused serum IgEs from the patients suffering from rhinallergosis caused by mites to be bound to IgE receptors. Thus, basophils artificially sensitized in a passive manner with serum IgEs from patients suffering from rhinallergosis caused by mites can be obtained (Pruzansky J.J. et al., J. Immunol., 131; 1949-1953, 1983). The plate was centrifuged to remove 100 µl of a supernatant. 100 µl of a 0.5% human albumin/PBS were added to the residue and centrifuged again. The centrifugal operation was repeated twice, and the cells were then washed. 100 µl of a Der p II peptide (55-63) having a predetermined concentration of PBS were combined with 50 µl of an MBE (10 µg/50 µl) or PBS, and allowed to react for 30 minutes at 37°C. The plate was then centrifuged to collect 100 µl of a supernatant. The amount of histamine was determined using a histamine assay kit manufactured by Eiken Kagaku K.K.
Essentially, a histamine release test is performed to determine the amount of histamine released when an antigen solution (an allergen solution) is added to a sample of whole blood (fresh blood) from an allergic patient. […]

[2] = test system: pooled patients' serum IgE; experiment: Binding inhibition assay: pooled patients' serum IgE to mite body extract (MBE); parameters: species or system human; details: peptide concentration of about 5 µg/ml - 5 mg/ml; pooled serum of 10 patients
Description: A crude mite body extract (MBE) was prepared from a mite, Dermatophagoides pteronyssinus (Der p), by homogenizing Der p mite bodies in 0.15 M NaCl/phosphate buffer (pH 7.3, PBS) using a Teflon homogenizer and centrifugally separating to collect the supernatant. A pooled serum IgE from patients was prepared by blending sera from 10 patients suffering from rhinallergosis caused by mites (RAST values with respect to Dermat ophagoides pteronyssinus: 3 or more). The peptide (Der p II 55-63) was synthesized by a Fmoc method using a peptide synthesizer pssm 8 manufactured by Shimadzu Corporation. The results of the synthesis were confirmed by an amino acid analysis and by an analysis of the primary structure. The MBE was added to each well of a 96-well black plate (Dainippon Seiyaku k.K.) so that the amount of protein contained was 1 µg/well (100 µl). The plate was allowed to stand overnight at 4°C. […] After completion of reaction, 100 µl of a reaction terminating liquid (0.1 M glycin/NaOH, pH 10.3) were added to each well, and absorbance was measured using a fluorospectrophotometer for 96-well plates (Manufactured by Flow). The absorbance in a control which was prepared by adding a PBS solution in place of the peptide was taken as 100%.

[3] = test system: serum IgE from 15 patients suffering from mite rhinallergosis; experiment: Enzyme antibody assay: binding of solid phase Der p II overlapping peptides to patients' serum IgE; parameters: species or system human; details: serum from each of 15 patients
Description: The complete primary structure of the amino acid sequence of a Der p II protein was determined after cDNA was isolated therefrom by Chua et al. (Int. Arch. Allergy Appl. Immunol. 91: 118-123, 1990). Based on the amino acid sequence, peptides were synthesized on a solid phase using a multipin system (manufactured by Chiron) and coupling reagents, Fmoc-amino acid and DCC (dicyclohexyl carbodiimide) (Geysen, H.M. et al., Proc. Natl. Acad. Sci. USA. 81:3998-4002, 1984). Sixty-one kinds of peptides were synthesized, the first peptide comprising the first through ninth amino acids of the N-terminal of Der p II, the second peptide comprising the third through eleventh amino acids of the N-terminal, and the third through 61st peptides being prepared in an analogous manner.
The RAST (radio-allergosorbent test, Pharmacia) values as determined using antigens from two mite species, Dermatophagoides pteronyssinus (Der p) and Dermatophagoides farina (D f), were class 4. Each of the above-mentioned 61 synthesized peptides and 100 µl of each patient's serum were placed in a 96-well plate and reacted overnight at room temperature. Synthesized peptides in a solid phase were washed three times to remove the patient's serum using a washing solution of 0.05% Tween 20/0.15 M NaCl/Tris-HCl (pH 7.5). 100 µl of galactosidase-labelled anti-human IgE antibodies (Pharmacia) were diluted to 40-fold using a 1:9 diluted Block-ace (product of Dainippon Seiyaku K.K.). The diluted solution was added to a 96-well plate, each synthesized solid phase peptide was also added, and reaction, was allowed to proceed overnight at room temperature. The synthesized solid phase peptide was washed with the same washing solution five times. Thereafter, to a 96-well black plate (manufactured by Dainippon Seiyaku K.K.), were added 200 µl of a solution of 0.1 mM 4-methylumbelliferyl-β-D-galactopyranoside in 0.1% bovine serum albumin/0.1 M NaCl/1 mM MgCl₂/0.1% sodium azide/10 mM phosphate buffer (pH 7.0). Subsequently, the synthesized solid phase peptide was added and reacted for 2 hours at 37°C. After completion of reaction, 100 µl of a reaction terminating solution (0.1 M glycin/NaOH, pH 10.3) were added to each well, and absorbance was measured using a fluorospectrophotometer for 96-well plates (Manufactured by Flow). This reaction was studied for each of 15 patients.

KASIDGLEV [synthesized peptide No. 28]
suppression of histamine release caused by MBE ([1]; low peptide concentrations): could not suppress histamine release | suppression of histamine release caused by MBE ([1]; peptide concentration 7.55 mg/ml, MBE 10 µg/50 µl): about 90% | histamine release ([1]; substance added alone to passively sensitized basophils): histamine was scarcely released | inhibition of binding of pooled patients' serum IgE to MBE [2]: 20% | binding reactions with IgE antibodies [3]: exhibited binding reactions with IgE antibodies
